Experimental data as given in paper PMC11300463, “Structure basis for sugar specificity of gustatory receptors in insects” (Cell Discovery, 2024).

Experiments:
Type in all cases: cell-based
DmGr64a [1] = target: T1, DmGr64a (Drosophila melanogaster, UniProt P83293); test: calcium imaging, HEK293 cells; details: activation
T1 construct: gene Gr64a; expressed in HEK293 cells for function; purified homotetramer for cryo-EM; residues Y234, W260, F333, L338, L339, F342, E399, F403, I420, V438, L439, Q441
T1 sequence (P83293 1-456): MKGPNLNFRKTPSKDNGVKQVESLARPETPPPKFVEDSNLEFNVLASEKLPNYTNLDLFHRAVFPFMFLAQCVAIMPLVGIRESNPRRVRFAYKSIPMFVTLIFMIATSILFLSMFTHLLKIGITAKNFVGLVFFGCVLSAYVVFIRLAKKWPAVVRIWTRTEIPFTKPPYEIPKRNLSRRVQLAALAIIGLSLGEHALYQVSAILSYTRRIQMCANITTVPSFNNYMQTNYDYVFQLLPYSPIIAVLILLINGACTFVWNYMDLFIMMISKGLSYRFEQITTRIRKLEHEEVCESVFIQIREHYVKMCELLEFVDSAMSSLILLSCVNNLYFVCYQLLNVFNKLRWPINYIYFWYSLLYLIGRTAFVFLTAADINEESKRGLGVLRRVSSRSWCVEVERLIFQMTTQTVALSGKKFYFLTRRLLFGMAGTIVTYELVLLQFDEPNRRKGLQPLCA

DmoGr43a = target: T2, DmoGr43a (Drosophila mojavensis, UniProt B4KNE2); test: electrophysiology, HEK293 cells; details: activation; also calcium imaging; cryo-EM structure of complex
T2 construct: gene Dmoj\GI20824; expressed in HEK293 cells for function; purified homotetramer for cryo-EM; printed residues R70, Y312, F313, F315, L386, I418, L419, I420, F422
T2 sequence (B4KNE2 1-427): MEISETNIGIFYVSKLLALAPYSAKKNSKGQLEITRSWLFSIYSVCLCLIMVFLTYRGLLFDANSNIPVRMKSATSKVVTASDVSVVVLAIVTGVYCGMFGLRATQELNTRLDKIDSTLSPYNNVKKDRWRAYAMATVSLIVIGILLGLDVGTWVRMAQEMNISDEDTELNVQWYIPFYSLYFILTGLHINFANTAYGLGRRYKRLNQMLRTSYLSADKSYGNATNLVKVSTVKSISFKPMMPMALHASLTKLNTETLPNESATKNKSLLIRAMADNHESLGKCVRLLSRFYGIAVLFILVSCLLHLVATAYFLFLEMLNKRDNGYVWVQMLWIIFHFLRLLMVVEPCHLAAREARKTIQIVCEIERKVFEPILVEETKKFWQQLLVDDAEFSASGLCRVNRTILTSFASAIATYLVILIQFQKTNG

DmGr64a [2] = target: T1, DmGr64a; test: calcium imaging, HEK293 cells

| EC50 (DmoGr43a) [mM] | EC50 (DmGr64a [2]) [mM] | SMILES | calcium imaging, HEK293 cells (DmGr64a [1]) |
| --- | --- | --- | --- |
| 43 ± 4.69 | – | OCC1(O)OC[C@@H](O)[C@@H](O)[C@@H]1O (some centres unmarked) [fructose] | several sugars including fructose, trehalose, sucrose and maltose were able to activate DmGr64a |
| – | – | OC[C@H]1O[C@H](O[C@H]2[C@H](O)[C@@H](O)C(O)O[C@@H]2CO)[C@H](O)[C@@H](O)[C@@H]1O (some centres unmarked) [maltose] | several sugars including fructose, trehalose, sucrose and maltose were able to activate DmGr64a |
| – | ~1.77 | OC[C@H]1O[C@@](CO)(O[C@H]2O[C@H](CO)[C@@H](O)[C@H](O)[C@H]2O)[C@@H](O)[C@@H]1O [sucrose] | – |
| – | – | OC[C@H]1O[C@H](O[C@H]2O[C@H](CO)[C@@H](O)[C@H](O)[C@H]2O)[C@H](O)[C@@H](O)[C@@H]1O [trehalose] | several sugars including fructose, trehalose, sucrose and maltose were able to activate DmGr64a |
